Results as given in a melting point compilation (Tetko et al.; mined from patent text by program, amines drawn as free bases though some values may be those of a salt).

First: CNC(=O)n1nc(Oc2ccc(C(F)(F)F)cc2[N+](=O)[O-])cc1C(F)(F)F
Second: CCN(Cc1c(F)cccc1Cl)c1c([N+](=O)[O-])cc(C(F)(F)F)c(Cl)c1[N+](=O)[O-]
The melting point of the first is lower: 102 to 104 °C for the first, 118 to 125 °C for the second.

First: COc1ccc(NCCNC(=O)c2ccc(OCC=C(C)CCC=C(C)C)cc2)nc1
Second: COc1ccc(-n2cc(C(=O)N(CC(=O)O)c3ccc(OCC(C)(C)C)c(C#N)c3)c(C)n2)cc1
The melting point of the first is lower: 70.8 to 71.7 °C for the first, 98 to 101 °C for the second.

Compared with `NC(=O)C1=NN(c2ccccc2)C(C(=O)O)=NN1c1ccccc1`, `Nc1ncnc2c1c(-c1ccccc1Cl)cn2-c1ccccc1` is lower in melting point: 241 to 242 °C for the first, 175 to 176 °C for the second.

First: CN(C)C(=S)SC(C[N+](=O)[O-])c1ccccc1 (stereo not drawn)
Second: Cc1ccccc1-c1c(C(=O)N(C)C)ccc2ccccc12
The melting point of the first is higher: 105 to 106 °C for the first, 95 to 97 °C for the second.

First: Fc1ccccc1C(c1ccccc1)n1cccc1 (stereo not drawn)
Second: O=C1CC(=O)N(Cc2ccccc2)[C@H](Cc2ccccc2)C1
The melting point of the first is lower: 81 to 82.5 °C for the first, 97 to 97.5 °C for the second.

First: CCCCCCCCC(SCCCCCC)C(=O)Nc1c([N+](=O)[O-])ccc2ncccc12 (stereo not drawn)
Second: O=C(O)CCCCCCCCCCc1ccco1
The melting point of the first is higher: 89.9 °C for the first, 40 to 41 °C for the second.

First: COc1cc2c(c(Cl)c1Cl)C(=O)C(C)C2 (stereo not drawn)
Second: COc1cc(N2C(=O)N(C)CC2O)c(F)cc1Cl (stereo not drawn)
The melting point of the first is lower: 129 °C for the first, 138 to 140 °C for the second.

Compared with `O=C(CN1CCC(Cc2ccccc2)CC1)Nc1ccc2[nH]c(=O)[nH]c2c1`, `CCOC(=O)CCCC1CCN(CCOC(c2ccccc2)c2ccc(F)cc2)CC1` (stereo not drawn) is lower in melting point: 270 °C for the first, 119 to 120 °C for the second.

First: Cc1ccccc1-c1cc(C#N)cc2c1OC(CN)C2 (stereo not drawn)
Second: N#Cc1ccc2c(c1)C=CCCO2
The melting point of the first is higher: 127 to 129 °C for the first, 69 to 71 °C for the second.

First: CC(OC(=O)ON=C(C#N)c1ccccc1)C1CC1 (stereo not drawn)
Second: CC1CCC(C(C)C)C(OC(=O)C(O)c2ccccc2)C1 (single isomer, unassigned; (-))
The melting point of the first is higher: 65 to 67 °C for the first, 50 to 51 °C for the second.

First: CCC(CC)c1ccc(Cl)c2nc3n(c12)CCCCN3c1ccc(N(C)C)cc1C
Second: Cc1ccn2c(C)c(CCc3ccc4nc(N(C)C)oc4c3)nc2c1
The melting point of the first is higher: 174 to 175 °C for the first, 67 to 69 °C for the second.

First: Cn1c(C(F)(F)F)ccc(-c2cc3c(cc2F)OCC(=O)N3)c1=O
Second: CC1(C)OC(=O)Nc2ccc(-c3ccc(F)c(C#N)c3)cc21
The melting point of the first is lower: 216 to 218 °C for the first, 255 to 256 °C for the second.

First: CC(C)Cn1c(=O)n(C)c(=O)c2c(SCCO)n(Cc3cccc4ccccc34)cc21
Second: CC(C)N(CCN1C(=O)/C(=N/NC(=O)Nc2ccccc2)c2ccccc21)C(C)C
The melting point of the first is lower: 138 to 141 °C for the first, 157 to 159 °C for the second.

First: CC(=O)c1cc(NS(C)(=O)=O)ccc1O
Second: O=C(Nc1cc(Cl)cc(Cl)c1)c1cc(F)ccc1O
The melting point of the first is lower: 121 to 122 °C for the first, 258 to 260 °C for the second.

First: NC(=O)c1ccc(NC2CCOCC2)cc1
Second: CN1CCC(c2c[nH]c3ccc(NC(=O)c4ccsc4)nc23)CC1
The melting point of the first is higher: 208 to 210 °C for the first, 123 to 127 °C for the second.

Compared with `Cc1ccc(SCc2ccc(OC(F)(F)F)cc2)cc1`, `Cc1ccc(OC(=O)C=Cc2ccc([N+](=O)[O-])cc2)cc1` is higher in melting point: 74 to 76 °C for the first, 168 to 170 °C for the second.

First: CC(C)NC(=S)n1ccc2ccc(Cl)cc21
Second: CCOC(=O)c1cc(-c2ccc(Cl)cc2)ns1
The melting point of the first is higher: 92 to 93 °C for the first, 87.5 to 89 °C for the second.

Compared with `CCCCc1nc(Cl)c(C(=O)NC)n1Cc1ccc2oc(-c3ccccc3NS(=O)(=O)C(F)(F)F)c(Br)c2c1`, `CCCCS(=O)(=O)Nc1cc(C(=O)Nc2ccccc2)ccc1OC` is higher in melting point: 89 to 92 °C for the first, 182 to 183 °C for the second.

First: CC1(C)C=C(C#Cc2ccccn2)CC(C)(C)C1
Second: c1cnc2cccn2c1
The melting point of the first is lower: 55 to 56 °C for the first, 230 to 231 °C for the second.

Compared with `c1ccc(COc2ccc(-c3cocn3)cc2)cc1`, `CCOC(=O)CCc1ccc(SCc2coc(/C=C/c3ccccc3)n2)cc1` is lower in melting point: 101 to 102 °C for the first, 77 to 78 °C for the second.

Compared with `O=C(O)c1ccc(Cl)c(NC(=O)C(CS)Cc2ccccc2)c1` (stereo not drawn), `Cc1nc(NC(=O)c2cccc(Cl)c2)sc1C(=O)NCc1ccccc1` is lower in melting point: 189 to 191 °C for the first, 178 to 179 °C for the second.

Compared with `CC(=O)Nc1ccc(C(=O)OC2C=C(C)C(=O)CC(C)(C)C2O)cc1` (stereo not drawn), `CCOC(=O)C1(C(=O)Nc2ccc(C(F)(F)F)cc2)CC1` is lower in melting point: 134 to 135 °C for the first, 80.5 to 82 °C for the second.

First: CC1(C)OC(=O)Nc2ccc(-c3coc(C=O)c3)cc21
Second: CCC(=O)c1ccc(-c2ccc(=O)[nH]n2)cc1
The melting point of the first is higher: 262 to 263 °C for the first, 202 to 205 °C for the second.

First: O=[N+]([O-])c1cc(Cl)c(Cl)cc1NCCCO
Second: COc1cc(N)cc([N+](=O)[O-])c1OC
The melting point of the first is lower: 97 °C for the first, 129 to 131 °C for the second.

First: O=C(O)CCCc1nc2nc[nH]c2c2nc(-c3ccccc3)nn12
Second: Nc1nc2c(ncn2C(c2ccccc2)(c2ccccc2)c2ccccc2)c(=O)[nH]1
The melting point of the first is higher: 280 °C for the first, 268 to 270 °C for the second.

Compared with `O=C1CN(C(=O)C(Cl)Cl)N(Cc2ccc(Cl)c(Cl)c2)C(=O)N1`, `Cc1c(Cl)cccc1NC(=O)NCc1ccc2c(c1)CN(C1CCC(=O)NC1=O)C2=O` (stereo not drawn) is higher in melting point: 196 °C for the first, 252 to 254 °C for the second.

Compared with `CCC1(CC(=O)O)OCC(=O)c2c1[nH]c1cccc(Cl)c21` (stereo not drawn), `CCOC(=O)C1=C(COCC2(C)CO2)NC(C)=C(C(=O)OC)C1c1cccc(Cl)c1Cl` (stereo not drawn) is lower in melting point: 240 to 243 °C for the first, 107 to 112 °C for the second.

First: CN(C)c1ccc2c(c1Br)C(=O)C1(CC1)O2
Second: Cc1cc(C)c(C2C(=O)NC3(CCN(N(C)C)CC3)C2=O)c(C)c1 (stereo not drawn)
The melting point of the first is lower: 79 to 81 °C for the first, 237 to 241 °C for the second.

Compared with `COc1ccc(N(C)c2nc(C)nc3oc(C)cc23)cc1`, `COc1cc(Nc2nccc(-c3ccc(CO)cc3)n2)cc(OC)c1OC` is higher in melting point: 108 to 109 °C for the first, 171 to 172 °C for the second.

First: N#Cc1cnn2c1NCC=C2c1cc(Cl)ccc1Cl
Second: Sc1ncc2c(n1)-c1ccc(Cl)cc1C(c1ccccc1Cl)=NC2
The melting point of the first is lower: 222 to 223 °C for the first, 232 to 234 °C for the second.

Compared with `COc1ccc(-c2cnc3cc4cnn(CCOC(C)=O)c4cc3n2)cc1F`, `CCOCc1nc2c(N)nc3cc(-c4cncc(CO)c4)cnc3c2n1CC(C)(C)O` is higher in melting point: 164 to 166 °C for the first, 212 to 214 °C for the second.

Compared with `COc1ccc(CCCC(CC(=O)O)CC(=O)O)cc1`, `CCOC(=O)c1ccc(C(=O)NS(=O)(=O)c2ccc(CCNC(C)=O)cc2)cn1` is higher in melting point: 71 to 73 °C for the first, 245 °C for the second.

First: CC1=CC(NC(=O)OC(C)(C)C)C(C(=O)O)CC1 (stereo not drawn)
Second: COC(=O)c1sc(C)cc1C
The melting point of the first is higher: 132 to 136 °C for the first, 98 to 101 °C for the second.

First: CCOc1nc2c(N)nc3cccnc3c2n1CC1CCOCC1
Second: CCOCCn1c(NC2CCN(CCO)CC2)nc2cccnc21
The melting point of the first is higher: 197 to 200 °C for the first, 94.3 °C for the second.

Compared with `Cc1c(CN(O)Cc2ccccc2)c(C)c(CN(O)Cc2ccccc2)c(C)c1CN(O)Cc1ccccc1`, `Cc1ccc(Cn2ccc(CN3CCC(c4ccccc4)(c4ccccc4)CC3)n2)cc1C` is lower in melting point: 193 to 195 °C for the first, 139 to 140 °C for the second.

First: CCN(CC)C(=O)OC12Oc3cc(C(C)C)ccc3C1(O)C(=O)c1ccccc12 (stereo not drawn)
Second: CC1(C)N=C(c2ccccc2Cl)c2cc([N+](=O)[O-])ccc2-n2cnnc21
The melting point of the first is lower: 127 to 130 °C for the first, 262 °C for the second.

Compared with `OCCOc1cccc2ocnc12`, `O=S(=O)(Br)c1cccc2cccnc12` is higher in melting point: 47 to 49 °C for the first, 142 to 144 °C for the second.

Compared with `CN1CCN(C(=O)c2ccccc2C(c2ccc(O)cc2)c2ccc(O)cc2)CC1`, `COc1ccc(S(=O)(=O)Nc2ccccc2/C=C/c2ccncc2)cc1` is lower in melting point: 226 to 231 °C for the first, 207 to 209 °C for the second.

First: CN(C)c1ccc(C(=O)NN=C2C(=O)Nc3ccc(I)cc32)cc1
Second: Cc1c(Sc2cccnc2)sc2ccc(C(=O)O)cc12
The melting point of the first is higher: 324 °C for the first, 220 to 222 °C for the second.

First: Cc1ccc2c(c1)O[C@@H](CN1CCC(CNC(=O)c3cccnc3N)CC1)CO2
Second: Cc1nc(N2CCN(Cc3ccc(F)cc3)C2=O)sc1C(=O)NCc1cccnc1
The melting point of the first is lower: 143 to 146 °C for the first, 177 to 179 °C for the second.

First: CCn1c(=O)c2c(-c3noc(C4CC4)n3)ncn2c2cccnc21
Second: O=c1nc(-c2ccnc(-c3cccs3)c2)sc2ccccc12
The melting point of the first is higher: 254 to 255 °C for the first, 160 to 161 °C for the second.

First: N#Cc1c(F)cccc1Nc1ccccc1
Second: CN(C)CCNc1cc(CNc2ccccc2C(=O)Nc2cccc(C(F)(F)F)c2)ccn1
The melting point of the first is lower: 97 to 99 °C for the first, 100 °C for the second.

First: Fc1ccc2scc(Br)c2c1
Second: O=C(O)c1ccc2oc3ccncc3c(=O)c2c1
The melting point of the first is lower: 79 to 80 °C for the first, greater than 300 °C for the second.

Compared with `C=Cc1cn(-c2c(Cl)cc(C(F)(F)F)cc2Cl)nn1`, `CS(=O)(=O)c1c(C(N)=NO)nn(-c2c(Cl)cc(C(F)(F)F)cc2Cl)c1N` is higher in melting point: 109 to 111 °C for the first, 132 to 134 °C for the second.

First: CS(=O)(=O)NCc1cc(Br)cc2[nH]c(=O)c(=O)[nH]c12
Second: CC(C(=O)NCc1ccc(C(C)(C)C)cc1)c1ccc(NS(C)(=O)=O)c(F)c1 (stereo not drawn)
The melting point of the first is higher: greater than 300 °C for the first, 52 to 54 °C for the second.

Compared with `CCCc1nc(C)nc(O)c1Cc1ccc([N+](=O)[O-])cc1`, `O=C(c1cccc([N+](=O)[O-])c1)c1ccc(Oc2ccccc2)c([N+](=O)[O-])c1` is lower in melting point: 200 °C for the first, 135 to 136 °C for the second.

First: COc1cccc(C(O)c2cccc(C(F)(F)F)c2)c1 (stereo not drawn)
Second: Cc1ccn2c(-c3ccnc(-c4ccc(N5CCOCC5)cc4)c3)c(-c3cccc(C)n3)nc2c1
The melting point of the first is lower: 51 to 52 °C for the first, 208 °C for the second.

Compared with `O=P(O)(O)CCCCCCCCC(F)(F)C(F)(F)C(F)(F)C(F)(F)F`, `CN(CCNCc1c(O)c(Br)cc2c1CCC2(C)C)CCNC(=O)c1nc(Cl)c(N)nc1N` is higher in melting point: 87 to 89 °C for the first, 134 to 136 °C for the second.

First: CC(C)(C)COc1ccc(N)cc1C#N
Second: CCS(=O)(=O)c1cc(OC)c(OC)c(C(=O)Cl)c1
The melting point of the first is lower: 55 to 56 °C for the first, 67 to 68 °C for the second.

Compared with `COc1ncccc1-c1cncc(OC2SCC(OC(C)=O)C(OC(C)=O)C2OC(C)=O)c1` (stereo not drawn), `COc1cc(F)c(C(=O)Nc2c(Cl)cncc2Cl)cc1OC1CCCC1` is lower in melting point: 167 °C for the first, 143 to 144 °C for the second.

First: CS(=O)(=O)N[C@@H]1CCCC[C@H]1Nc1nc(Nc2ccc3c(c2)CCC(=O)CC3)ncc1Cl
Second: CCCCN1CCN(Cc2ccc(COc3cccc4c3CN(C3CCC(=O)NC3=O)C4=O)cc2)CC1=O (stereo not drawn)
The melting point of the first is higher: 146 to 153 °C for the first, 138 to 140 °C for the second.

Compound `Cc1cc(C)c(N2CCCc3c2nn(C)c3N)c(Cl)c1` has a melting point of 234 to 236 °C.
